{
  "source": "ChEMBL document CHEMBL1201862",
  "about": "“PubChem BioAssay data set” (2004)",
  "key": {"Cytochrome P450 2D6": {"target": "Cytochrome P450 2D6 (Homo sapiens, UniProt P10635)", "sequence (P10635 whole entry)": "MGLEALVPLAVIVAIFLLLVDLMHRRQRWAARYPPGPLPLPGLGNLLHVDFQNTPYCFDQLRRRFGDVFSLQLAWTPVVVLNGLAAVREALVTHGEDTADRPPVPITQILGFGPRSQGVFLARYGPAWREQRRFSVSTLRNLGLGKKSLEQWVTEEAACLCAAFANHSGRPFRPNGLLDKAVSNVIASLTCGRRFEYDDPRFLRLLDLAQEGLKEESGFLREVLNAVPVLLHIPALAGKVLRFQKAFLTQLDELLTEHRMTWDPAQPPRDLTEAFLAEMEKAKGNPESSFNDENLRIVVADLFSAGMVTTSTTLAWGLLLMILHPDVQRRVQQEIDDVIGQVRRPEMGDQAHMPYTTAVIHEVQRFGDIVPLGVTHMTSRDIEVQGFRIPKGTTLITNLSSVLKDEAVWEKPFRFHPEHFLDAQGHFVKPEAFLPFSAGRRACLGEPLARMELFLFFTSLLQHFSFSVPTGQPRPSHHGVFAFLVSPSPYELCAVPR"}, "Cytochrome P450 2C9": {"target": "Cytochrome P450 2C9 (Homo sapiens, UniProt P11712)", "sequence (P11712 whole entry)": "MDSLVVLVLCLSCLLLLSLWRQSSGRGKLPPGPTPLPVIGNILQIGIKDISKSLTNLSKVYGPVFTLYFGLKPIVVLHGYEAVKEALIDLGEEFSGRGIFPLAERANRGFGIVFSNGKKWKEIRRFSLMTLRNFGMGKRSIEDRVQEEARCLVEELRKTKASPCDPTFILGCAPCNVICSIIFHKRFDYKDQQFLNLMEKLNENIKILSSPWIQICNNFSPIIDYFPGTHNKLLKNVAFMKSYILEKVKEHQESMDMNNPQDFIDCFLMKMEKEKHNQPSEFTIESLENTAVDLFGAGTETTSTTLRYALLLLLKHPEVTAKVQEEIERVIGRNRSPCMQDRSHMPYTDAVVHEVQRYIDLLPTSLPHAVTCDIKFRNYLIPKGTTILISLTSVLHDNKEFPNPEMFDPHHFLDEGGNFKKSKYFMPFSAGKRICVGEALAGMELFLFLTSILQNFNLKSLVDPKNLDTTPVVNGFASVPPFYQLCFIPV"}, "Cytochrome P450 1A2": {"target": "T1, Cytochrome P450 1A2 (Homo sapiens, UniProt P05177)", "T1 sequence (P05177 whole entry)": "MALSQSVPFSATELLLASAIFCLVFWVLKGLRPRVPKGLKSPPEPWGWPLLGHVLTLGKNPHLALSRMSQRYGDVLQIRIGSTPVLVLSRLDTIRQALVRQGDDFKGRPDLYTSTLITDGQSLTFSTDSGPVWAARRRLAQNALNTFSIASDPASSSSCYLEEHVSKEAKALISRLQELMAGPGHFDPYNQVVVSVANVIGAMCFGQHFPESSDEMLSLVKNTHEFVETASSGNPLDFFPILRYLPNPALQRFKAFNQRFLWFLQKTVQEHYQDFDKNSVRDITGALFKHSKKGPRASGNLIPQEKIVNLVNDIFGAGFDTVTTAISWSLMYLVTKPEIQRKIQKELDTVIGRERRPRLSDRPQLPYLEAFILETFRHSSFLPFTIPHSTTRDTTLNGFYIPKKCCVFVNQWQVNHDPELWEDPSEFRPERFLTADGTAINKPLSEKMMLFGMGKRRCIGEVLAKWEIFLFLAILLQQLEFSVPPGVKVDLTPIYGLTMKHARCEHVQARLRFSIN"}, "Cytochrome P450 2C19": {"target": "Cytochrome P450 2C19 (Homo sapiens, UniProt P33261)", "sequence (P33261 whole entry)": "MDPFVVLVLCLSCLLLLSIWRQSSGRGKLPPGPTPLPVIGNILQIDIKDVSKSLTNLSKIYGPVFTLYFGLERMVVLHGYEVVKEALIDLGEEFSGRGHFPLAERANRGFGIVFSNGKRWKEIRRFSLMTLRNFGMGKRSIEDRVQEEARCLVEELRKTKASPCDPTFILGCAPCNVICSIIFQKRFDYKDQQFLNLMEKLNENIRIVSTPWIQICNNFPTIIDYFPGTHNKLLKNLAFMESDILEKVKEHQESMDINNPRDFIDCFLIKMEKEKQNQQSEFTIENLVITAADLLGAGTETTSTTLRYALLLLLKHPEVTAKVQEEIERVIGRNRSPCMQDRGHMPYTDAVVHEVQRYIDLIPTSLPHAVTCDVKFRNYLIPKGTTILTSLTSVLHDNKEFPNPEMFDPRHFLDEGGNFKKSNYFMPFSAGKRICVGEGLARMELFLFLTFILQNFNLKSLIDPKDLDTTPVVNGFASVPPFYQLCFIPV", "test": "Cytochrome panel assay with activity outcomes. Panel member name: p450-cyp2c19 Compounds with AC50 equal or less than 10 uM are considered active", "type": "functional"}, "[1]": {"target": "Dual specificity protein phosphatase 3 (Homo sapiens, UniProt P51452)", "sequence (P51452 whole entry)": "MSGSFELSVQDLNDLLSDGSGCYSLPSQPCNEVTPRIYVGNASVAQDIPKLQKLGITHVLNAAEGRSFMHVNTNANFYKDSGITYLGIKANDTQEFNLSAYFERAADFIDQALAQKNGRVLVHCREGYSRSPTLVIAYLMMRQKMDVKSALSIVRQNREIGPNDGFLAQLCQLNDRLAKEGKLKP", "test": "SAR VHR1 Fluorescent Assay for In Vitro dose response studies Set 3. [Related pubchem assays (depositor defined):AID1654, AID1661, AID1878]", "type": "functional"}, "CAAX prenyl protease 2 [2]": {"target": "CAAX prenyl protease 2 (Saccharomyces cerevisiae S288c, UniProt Q03530)", "sequence (Q03530 whole entry)": "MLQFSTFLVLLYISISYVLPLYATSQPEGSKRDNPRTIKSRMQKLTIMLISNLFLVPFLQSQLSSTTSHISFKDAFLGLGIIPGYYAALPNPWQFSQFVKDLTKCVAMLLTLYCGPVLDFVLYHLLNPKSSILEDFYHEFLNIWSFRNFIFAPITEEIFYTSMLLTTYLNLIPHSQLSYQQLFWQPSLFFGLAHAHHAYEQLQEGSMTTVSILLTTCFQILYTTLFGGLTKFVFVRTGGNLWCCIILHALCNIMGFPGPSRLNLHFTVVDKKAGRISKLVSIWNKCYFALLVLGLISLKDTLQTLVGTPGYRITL", "type": "biochemical"}, "CAAX prenyl protease 2 [3]": {"target": "CAAX prenyl protease 2 (Homo sapiens, UniProt Q9Y256)", "sequence (Q9Y256 whole entry)": "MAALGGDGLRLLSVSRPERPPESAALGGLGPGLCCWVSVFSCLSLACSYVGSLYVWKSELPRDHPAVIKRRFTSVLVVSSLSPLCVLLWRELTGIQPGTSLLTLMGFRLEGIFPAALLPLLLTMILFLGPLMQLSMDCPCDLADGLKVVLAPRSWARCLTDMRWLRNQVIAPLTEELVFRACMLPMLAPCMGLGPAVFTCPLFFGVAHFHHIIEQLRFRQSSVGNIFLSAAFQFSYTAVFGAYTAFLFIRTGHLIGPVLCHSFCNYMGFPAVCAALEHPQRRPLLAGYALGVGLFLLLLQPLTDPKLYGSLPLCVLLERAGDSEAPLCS", "test": "human Rce1 protease inhibitors, dose response, biochemical, yeast membranes, quenched-peptide fluorescence, cherry-pick (AID 588849)"}, "Cysteine protease ATG4B": {"target": "T2, Cysteine protease ATG4B (Homo sapiens, UniProt Q9Y4P1)", "T2 sequence (Q9Y4P1 whole entry)": "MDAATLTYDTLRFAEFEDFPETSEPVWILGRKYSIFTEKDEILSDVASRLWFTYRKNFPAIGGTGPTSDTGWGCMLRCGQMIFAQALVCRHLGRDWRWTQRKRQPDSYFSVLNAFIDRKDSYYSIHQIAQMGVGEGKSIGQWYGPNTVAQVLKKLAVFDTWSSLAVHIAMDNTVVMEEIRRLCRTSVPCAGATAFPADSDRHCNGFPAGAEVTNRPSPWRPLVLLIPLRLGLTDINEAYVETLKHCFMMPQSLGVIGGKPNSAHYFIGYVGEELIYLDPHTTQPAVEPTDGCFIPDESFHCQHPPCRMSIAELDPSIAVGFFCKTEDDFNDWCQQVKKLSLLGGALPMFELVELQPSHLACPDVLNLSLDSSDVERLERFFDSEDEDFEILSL", "test": "ATG4B protease inhibitors, dose response, biochemical, fluorescence, set 2 (AID 588584)", "type": "functional"}, "BJ [4]": {"test_system": "BJ", "test": "cytotoxicity toward BJ-TERT fibroblasts, dose response, cell-based, RAS-independent, luminescence (AID 1933)", "type": "functional", "settings": "Homo sapiens"}, "Phospholipase A2": {"target": "Phospholipase A2 (Homo sapiens, UniProt P04054)", "sequence (P04054 whole entry)": "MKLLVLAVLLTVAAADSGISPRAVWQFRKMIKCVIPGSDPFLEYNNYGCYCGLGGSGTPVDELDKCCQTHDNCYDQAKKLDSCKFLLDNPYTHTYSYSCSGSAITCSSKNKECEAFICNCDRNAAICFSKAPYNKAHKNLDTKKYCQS", "test": "PLA2 enzyme inhibitors, dose response, counter-screen for ATG4B inhibitor project, biochemical, set 2 (AID 588586)", "type": "functional"}, "[5]": {"test": "cytotoxicity toward DRD oncogenic fibroblasts, dose response, cell-based, non-viral oncogenic, luminescence (AID 1934)", "type": "functional", "settings": "Homo sapiens"}, "BJ [6]": {"test_system": "BJ", "test": "cells", "type": "functional, cell-based", "settings": "Homo sapiens"}},
  "note": "Calls of active or inactive are those of the source.",
  "data": [
    {"compound": "Cn1cccc1C(=O)N1CCC2(CCCN(c3ncccn3)C2)CC1", "values": [
      {"measurement": "AC50", "setting": "Cytochrome P450 2D6", "result": "inconclusive"},
      {"measurement": "AC50", "setting": "Cytochrome P450 2C9", "result": "inconclusive"},
      {"measurement": "AC50", "setting": "Cytochrome P450 1A2", "result": "inconclusive"},
      {"measurement": "AC50", "setting": "Cytochrome P450 2C19", "result": "inconclusive"}
    ]},
    {"compound": "Cn1cnnc1SCC(=O)Nc1ccc2nc(SCC(=O)c3ccccc3)sc2c1", "values": [
      {"measurement": "IC50", "setting": "[1]", "result": "> 66 µM (inactive)"}
    ]},
    {"compound": "CC1Oc2ccccc2C=C1/C=N/NC(=O)[C@@H](C)NC(=O)OC(C)(C)C", "note": "(some centres not stated)", "values": [
      {"measurement": "AC50", "setting": "CAAX prenyl protease 2 [2]", "result": "57 µM (active)"},
      {"measurement": "AC50", "setting": "CAAX prenyl protease 2 [3]", "result": "23.1 µM (active)"}
    ]},
    {"compound": "CCC1=Nc2cc(C(=O)NCc3ccco3)ccc2Sc2ccc(Cl)cc21", "values": [
      {"measurement": "IC50", "setting": "Cysteine protease ATG4B", "result": "> 80 µM (inactive)"},
      {"measurement": "EC50", "setting": "BJ [4]", "result": "1.55 µM (active)"},
      {"measurement": "IC50", "setting": "Phospholipase A2", "result": "40.1 µM (inactive)"},
      {"measurement": "EC50", "setting": "[5]", "result": "1.97 µM (active)"},
      {"measurement": "EC50", "setting": "BJ [6]", "result": "20.4 µM (active)"}
    ]}
  ]
}
